Experimental data reported in patent publication US4767761A, “Ornithine derivatives and their use as methotrexate-resistant cell inhibitors” (priority 1987, dated 1988).
Read-outs that look alike come from different tables or passages of the source.

Assays:
[1] = system: L 1210/R81 murine leukemia cells; assay: Cytotoxicity assay against L 1210/R81 murine leukemia cells, 48 hours; format: cell-based; details: for IC50: Mus musculus, L1210 ( R81), read-out: L1210/R81 cell growth inhibition IC50; for L1210/R81 normalized relative to MTX: number in parentheses
Description: (§1) A cytotoxicity assay was carried out for the same group of compounds against L 1210 and L 1210/R81 murine leukemia cells cultured for 48 hours in RPMI 1640 medium containing 10% fetal bovine serum, using the procedure of Mosman, J. Immunol. Meth., Vol. 65, 55-63 (1983).

[2] = system: L 1210 murine leukemia cells; assay: Cytotoxicity assay against L 1210 murine leukemia cells, 48 hours; format: cell-based; details: for IC50: Mus musculus, read-out: L1210 cell growth inhibition IC50; for L1210 normalized relative to MTX: number in parentheses
Description: as §1

[3] = system: dihydrofolate reductase (DHFR); details: result in words; Rosowsky et al. (1986); cited from earlier work
[4] = system: folylpolyglutamate synthetase (FPGS); details: result in words; Rosowsky et al. (1986); cited from earlier work
cell growth in culture = details: result in words; Rosowsky et al. (1986); cited from earlier work
[5] = biological target: T1, DHFR (Dihydrofolate Reductase) from L 1210/R81 murine leukemia cells (Mus musculus, UniProt P00375); assay: Inhibition of DHFR purified by MTX affinity chromatography from L 1210/R81 murine leukemia cells (spectrophotometric, 340 nm); format: biochemical; details: range of six separate experiments on different days (footnote a, Table 1)
T1 construct: endogenous in cells; host or cells: L1210/R81 murine leukemia cells
T1 sequence (P00375 1-187): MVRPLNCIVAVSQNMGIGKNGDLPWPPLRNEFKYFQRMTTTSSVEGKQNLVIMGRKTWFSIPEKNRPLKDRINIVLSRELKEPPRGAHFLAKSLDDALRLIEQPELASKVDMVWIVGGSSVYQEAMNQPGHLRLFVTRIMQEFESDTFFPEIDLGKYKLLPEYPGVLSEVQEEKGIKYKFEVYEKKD
Description: Inhibition of DHFR purified by MTX affinity chromatography from L 1210/R81 murine leukemia cells was determined. […] Certain of the compounds were also tested as inhibitors of partially purified FPGS from mouse liver.
IC50 concentrations (μM) were […]

CEM lymphoblasts = assay: Cell growth inhibition against human CEM lymphoblasts, 48 hours; format: cell-based; details: for IC50: Homo sapiens, CCRF-CEM, read-out: CEM cell growth inhibition IC50; for CEM normalized relative to MTX: number in parentheses
Description: (§2) In addition, four of the compounds were tested against human CEM and CEM/MTX lymphoblasts cultured fcr 48 hours in Dulbecco's modified Eagle's medium containing 10% fetal bovine serum.

CEM/MTX lymphoblasts = assay: Cell growth inhibition against human CEM/MTX lymphoblasts, 48 hours; format: cell-based; details: for IC50: Homo sapiens, read-out: CEM/MTX cell growth inhibition IC50; for CEM/MTX normalized relative to MTX: number in parentheses
Description: as §2

SCC15 cells [6] = assay: Growth inhibition of human squamous carcinoma cells SCC15; format: cell-based; details: SCC-15, 336 h, continuous exposure about two weeks
SCC15/R1 cells [7] = assay: Growth inhibition of MTX-resistant human squamous carcinoma cells SCC15/R1; format: cell-based; details: SCC-15, 336 h, continuous exposure about two weeks
SCC25 cells [8] = assay: Growth inhibition of human squamous carcinoma cells SCC25; format: cell-based; details: SCC-25, 336 h, continuous exposure about two weeks
SCC25/R1 cells [9] = assay: Growth inhibition of MTX-resistant human squamous carcinoma cells SCC25/R1; format: cell-based; details: SCC-25, 336 h, continuous exposure about two weeks
[10] = system: parental SCC15 and SCC25 cells; assay: Growth inhibition of parental SCC15 and SCC25 cells (joint statement); format: cell-based, human
[11] = system: L1210, L1210/R81, CEM and CEM/MTX cells; assay: Cell growth inhibition of Table 2 (joint statement); format: cell-based, murine; human; details: comparison with the other compounds
Description: as §1
In addition, four of the compounds were tested against human CEM and CEM/MTX lymphoblasts cultured fcr 48 hours in Dulbecco's modified Eagle's medium containing 10% fetal bovine serum. The IC50 (μM) values, with normalized values relative to MTX given in parentheses, are reported in the last two columns of Table 2.

SCC15 cells [12] = details: taken from Rosowsky et al. (1985); cited from earlier work
SCC15/R1 cells [13] = details: taken from Rosowsky et al. (1985); cited from earlier work
SCC25 cells [14] = details: taken from Rosowsky et al. (1985); cited from earlier work
SCC25/R1 cells [15] = details: taken from Rosowsky et al. (1985); cited from earlier work
mouse liver FPGS = details: footnote c, Table 1; see Moran et al.; cited from earlier work
[16] = system: MTX-resistant SCC15/R1 and SCC25/R1 sublines; assay: Growth inhibition of MTX-resistant SCC15/R1 and SCC25/R1 sublines (joint statement); format: cell-based, human
[17] = L1210, 48 hours, RPMI 1640, 10% fetal bovine serum
[18] = 48 hours, RPMI 1640, 10% fetal bovine serum
[19] = 48 hours, Dulbecco's modified Eagle's medium, 10% fetal bovine serum

| SMILES | IC50 ([1]; 48 h) [nM] | IC50 [2, 17] [nM] | L1210 normalized relative to MTX [2] | IC50 [1, 18] [nM] | L1210/R81 normalized relative to MTX [1] | IC50 (CEM lymphoblasts; [19]) [nM] | CEM normalized relative to MTX (CEM lymphoblasts) | IC50 (CEM/MTX lymphoblasts; [19]) [nM] | CEM/MTX normalized relative to MTX (CEM/MTX lymphoblasts) | further results |
| --- | --- | --- | --- | --- | --- | --- | --- | --- | --- | --- |
| Nc1nc(N)c2nc(CNc3ccc(C(=O)N[C@@H](CCC(=O)O)C(=O)O)cc3)cnc2n1 [Aminopterin, reference compound] | 84000 |  |  |  |  |  |  |  |  |  |
| NCCC[C@H](NC(=O)c1ccc(NCc2cnc3nc(N)nc(N)c3n2)cc1)C(=O)O [Compound 1, N^α -(4-Amino-4-deoxypteroyl)-L-ornithine] | 32000 |  |  |  |  |  |  |  |  | IC50 ([2]; L1210, 48 h): 1300 nM; inhibitor of dihydrofolate reductase [3]: potent inhibitor; inhibitor of folylpolyglutamate synthetase [4]: potent inhibitor; inhibitor of cell growth in culture (cell growth in culture): relatively inactive |
| CC(=O)NCCC[C@H](NC(=O)c1ccc(NCc2cnc3nc(N)nc(N)c3n2)cc1)C(=O)O [Compound 2] |  | 17 | 0.27 | 81000 | 2.5 |  |  |  |  |  |
| Nc1nc(N)c2nc(CNc3ccc(C(=O)N[C@@H](CCCNC(=O)c4ccccc4)C(=O)O)cc3)cnc2n1 [Compound 4] |  | 0.89 | 5.2 | 17000 | 12 | 6.6 | 5.0 | 1100 | 6.0 | IC50 [5]: 0.56 to 1.5 nM |
| Nc1nc(N)c2nc(CNc3ccc(C(=O)N[C@@H](CCCNC(=O)c4ccc(Cl)cc4)C(=O)O)cc3)cnc2n1 [Compound 5] |  | 3.2 | 1.4 | 27000 | 7.4 | 270 | 0.12 | 1000 | 6.6 |  |
| Nc1nc(N)c2nc(CNc3ccc(C(=O)N[C@@H](CCCNC(=O)c4ccc(Cl)c(Cl)c4)C(=O)O)cc3)cnc2n1 [Compound 6] |  | 32 | 0.14 | 127000 | 1.6 | 7400 | 0.0043 | 10000 | 0.66 |  |
| Nc1nc(N)c2nc(CNc3ccc(C(=O)N[C@@H](CCCNC(=O)c4ccccc4C(=O)O)C(=O)O)cc3)cnc2n1 [Compound 7, N^α -(4-Amino-4-deoxypteroyl)-N^67-hemi-phthaloyl-L-Ornithine] |  |  |  |  |  |  |  |  |  | IC50 ([2]; L1210, 48 h): 0.75 nM; IC50 (CEM lymphoblasts; 48 h): 4.3 nM; IC50 (CEM/MTX lymphoblasts; 48 h): 420 nM; IC50 (SCC15 cells [6]): 1.1 nM; IC50 (SCC15/R1 cells [7]): 4 nM; IC50 (SCC25 cells [8]): 0.96 nM; IC50 (SCC25/R1 cells [9]): 1.3 nM; more potent than MTX against the parental SCC15 and SCC25 cells ([10]; more potent than MTX): 10- to 30 fold; activity shown in Table 2, result in words [11]: high activity |
| CN(Cc1cnc2nc(N)nc(N)c2n1)c1ccc(C(=O)N[C@@H](CCC(=O)O)C(=O)O)cc1 [Methotrexate] | 200000 |  |  |  |  |  |  |  |  | IC50 (CEM lymphoblasts; 48 h): 32 nM; IC50 (CEM/MTX lymphoblasts; 48 h): 6600 nM; IC50 (SCC15 cells [12]): 38 nM; IC50 (SCC15/R1 cells [13]): 580 nM; IC50 (SCC25 cells [14]): 7.5 nM; IC50 (SCC25/R1 cells [15]): 150 nM; substrate for mouse liver FPGS (mouse liver FPGS): substrates |
| CN(Cc1cnc2nc(N)nc(N)c2n1)c1ccc(C(=O)N[C@@H](CCC(=O)OC(C)(C)C)C(=O)O)cc1 [γ-t-butyl ester of MTX, γ-tert. -butyl ester of methotrexate] |  |  |  |  |  |  |  |  |  | less potent than MTX against the parental SCC15 and SCC25 cells ([10]; less potent than MTX): at least 10 fold; less potent than MTX against the MTX-resistant SCC15/R1 and SCC25/R1 sublines [16]: at least 30 fold; IC50 (SCC15 cells [12]): 600 nM; IC50 (SCC15/R1 cells [13]): 1300 nM; IC50 (SCC25 cells [14]): 400 nM; IC50 (SCC25/R1 cells [15]): 780 nM |
